We go through one molecule from ChEMBL document CHEMBL3044753, “Polyamines May Modulate Both G Protein-Coupled Receptors and G Proteins” (Med Chem Res, 2004).

Activity calls are given as the source filed them. The calls are words filed in the database; no cut-off is given here.

What is called EC50 is the concentration that produces a half-maximal response.

For assay [1], the system named is Left cardiac atrium. Kind of assay: Negative […] activity in electrically-paced Cavia porcellus (guinea pig) left atrium measured immediately by isometric transducer analysis in presence of bupranolol. The class given is functional, tissue-based.
Assay [2] relates to Right cardiac atrium. The experiment in a line: Negative […] activity in electrically-paced Cavia porcellus (guinea pig) right atrium assessed as effect on rate measured immediately by isometric transducer analysis in presence of benzalkonium/prazosin. Type of assay: functional, tissue-based.
The test system of assay [3] is Right cardiac atrium. Kind of assay: Negative […] activity in electrically-paced Cavia porcellus (guinea pig) right atrium assessed as effect on rate measured immediately by isometric transducer analysis in presence of benzalkonium/prazosin relative to arecaidine propargyl ester. The class given is functional.
For assay [4], the system named is Right cardiac atrium. Kind of assay: Negative […] activity in electrically-paced Cavia porcellus (guinea pig) right atrium measured immediately by isometric transducer analysis in presence of DPCPX. Type of assay: functional, tissue-based.
Assay [5] relates to Left cardiac atrium. Kind of assay: Negative ionotropic activity in electrically-paced Cavia porcellus (guinea pig) left atrium measured immediately by isometric transducer analysis in presence of ANR 83. The class given is functional, tissue-based.
Assay [6] deals with Right cardiac atrium. Kind of assay: Negative […] activity in electrically-paced Cavia porcellus (guinea pig) right atrium measured immediately by isometric transducer analysis in presence of AM 251. The class given is functional, tissue-based.
Assay [7] concerns Left cardiac atrium. Kind of assay: Negative ionotropic activity in electrically-paced Cavia porcellus (guinea pig) left atrium measured immediately by isometric transducer analysis in presence of AM 630. The class given is functional, tissue-based.
The test system of assay [8] is Left cardiac atrium. The experiment in a line: Negative […] activity in electrically-paced Cavia porcellus (guinea pig) left atrium measured immediately by isometric transducer analysis in presence of prazosin. Type of assay: functional, tissue-based.
The test system of assay [9] is Left cardiac atrium. The experiment in a line: Reversible negative ionotropic activity in electrically-paced Cavia porcellus (guinea pig) left atrium incubated for few seconds followed by compound washout measured after 3 hr by isometric transducer analysis in absence of benzalkonium/prazosin. Type of assay: functional, tissue-based.
The test system of assay [10] is Right cardiac atrium. Kind of assay: Negative ionotropic activity in electrically-paced Cavia porcellus (guinea pig) right atrium measured immediately by isometric transducer analysis in presence of bupranolol. Type of assay: functional, tissue-based.
Assay [11] has as its system Left cardiac atrium. The experiment in a line: Negative ionotropic activity in electrically-paced Cavia porcellus (guinea pig) left atrium measured immediately by isometric transducer analysis in presence of 4-DAMP mustard. Type of assay: functional, tissue-based.
Assay [12] deals with Left cardiac atrium. Kind of assay: Negative […] activity in electrically-paced Cavia porcellus (guinea pig) left atrium measured immediately by isometric transducer analysis in presence of benzalkonium/prazosin. Type of assay: functional, tissue-based.
For assay [13], the system named is Right cardiac atrium. Kind of assay: Negative ionotropic activity in electrically-paced Cavia porcellus (guinea pig) right atrium assessed as effect on force measured immediately by isometric transducer analysis in presence of benzalkonium/prazosin relative to arecaidine propargyl ester. Type of assay: functional.
Assay [14] concerns Right cardiac atrium. The experiment in a line: Negative ionotropic activity in electrically-paced Cavia porcellus (guinea pig) right atrium measured immediately by isometric transducer analysis in presence of prazosin. Type of assay: functional, tissue-based.
Assay [15] concerns Left cardiac atrium. Kind of assay: Negative ionotropic activity in electrically-paced Cavia porcellus (guinea pig) left atrium measured immediately by isometric transducer analysis in absence of benzalkonium/prazosin. Type of assay: functional, tissue-based.
Assay [16] has as its system Left cardiac atrium. Kind of assay: Negative […] activity in electrically-paced Cavia porcellus (guinea pig) left atrium measured immediately by isometric transducer analysis in presence of atropine. The class given is functional, tissue-based.
Assay [17] concerns Right cardiac atrium. The experiment in a line: Negative […] activity in electrically-paced Cavia porcellus (guinea pig) right atrium measured immediately by isometric transducer analysis in presence of ANR 83. Type of assay: functional, tissue-based.
Assay [18] deals with Left cardiac atrium. The experiment in a line: Negative […] activity in electrically-paced Cavia porcellus (guinea pig) left atrium measured immediately by isometric transducer analysis in presence of benextramine. The class given is functional, tissue-based.
Assay [19] deals with Left cardiac atrium. The experiment in a line: Negative ionotropic activity in electrically-paced Cavia porcellus (guinea pig) left atrium measured immediately by isometric transducer analysis in presence of DPCPX. Type of assay: functional, tissue-based.
Assay [20] relates to Right cardiac atrium. Kind of assay: Negative […] activity in electrically-paced Cavia porcellus (guinea pig) right atrium measured immediately by isometric transducer analysis in presence of benzalkonium. The class given is functional, tissue-based.
Assay [21] relates to Left cardiac atrium. The experiment in a line: Negative […] activity in electrically-paced Cavia porcellus (guinea pig) left atrium measured immediately by isometric transducer analysis in presence of methoctramine. Type of assay: functional, tissue-based.
Assay [22] relates to Right cardiac atrium. The experiment in a line: Negative ionotropic activity in electrically-paced Cavia porcellus (guinea pig) right atrium assessed as effect on force measured immediately by isometric transducer analysis in absence of benzalkonium/prazosin. Type of assay: functional, tissue-based.

For `COc1ccccc1CN1CCC(C2CCN(C(=O)CCCCCCC(=O)N3CCC(C4CCN(Cc5ccccc5OC)CC4)CC3)CC2)CC1` [PIPERTRAMINE AMIDE], the result in [1], in [4], in assay [5], in [6], in [7] and in assay [8] was Active. The outcome in assay [9], in [10], in [14], in assay [17], in assay [18] and in assay [19] was Active. Further, in assay [20], the outcome was Active. The EC50 in [2] was 1510 pM; in [12], 41.7 pM; in assay [15], 31.6 pM; in assay [22], 1550 pM. The Efficacy was determined as 42% in assay [3] and 81% in [13]. Further, the outcome in [11], in assay [16] and in assay [21] was inactive.
